Source: patent US20250082651A1, “GANAXOLONE FOR USE IN TREATING GENETIC EPILEPTIC DISORDERS” (Marinus Pharmaceuticals, Inc., priority 2017, published 2025)
Values joined by “and” are separate entries in the source; they are usually repeats but may differ in a detail not shown here. Identical values can stand only once.

Assays:
[1] = test system: children with Lennox-Gastaut Syndrome; test: Phase 2 open-label trial, LGS cohort, seizure efficacy; format: in vivo, human
Source text: Example 3 concerns a Phase 2 Multicenter, Open-Label Proof-of-Concept Trial of ganaxolone (GNX) in cohorts of children having genetic epilepsies (PCDH19, CDKL5 LGS, and CSWS) (ClinicalTrials.gov Identifier: NCT02358538). There were 11 female children with PCDH19 epilepsy between 5-16 years old with a confirmed genetic mutation. There were 6 female and 1 male children with confirmed genetic mutations in the CDKL5 cohort. There were 10 children in the Lennox Gastaut Syndrome cohort. Two children with CSWS were enrolled into the study. The study was conducted with 12 weeks baseline, and up to 26 weeks of treatment followed by a 52 week open label treatment. The primary efficacy was the percentage change in seizure frequency per 28 days relative to baseline calculated using daily seizure diary. [Time Frame: 26 weeks]. Secondary Outcome Measures were: Clinician Global Impression of Change score as assessed by questionnaire. [Time Frame: 26 Weeks]; Patient Global Impression of Change score as assessed by questionnaire. [Time Frame: 26 Weeks]; Evaluation of safety and tolerability of open-label ganaxolone as adjunctive therapy for uncontrolled seizures in children with rare genetic epilepsies, based on adverse event log and other clinical safety assessments. [Time Frame: 26 weeks]; Responder rates [Time Frame: 26 weeks]; and Seizure free days [Time Frame: 26 weeks].
Following screening and baseline evaluations, consenting patients enrolled into a 26-week study during which investigators were allowed to flexibly dose ganaxolone up to a dose of 1,800 mg/day for patients whose body weight was >30 kg, or up to 63 mg/kg/day for patients whose body-weight was <30 kg. The primary efficacy measure is % change from baseline in the 28-day seizure frequency count. Safety and tolerability were within the secondary objectives of the study.
In this study, oral ganaxolone suspension or capsules were administered up to a total of 63 mg/kg/day (maximum 1800 mg/day) over 2-4 weeks. About six-eight titration steps are used, depending on the size of the patient. Children larger than 30 kg may take the ganaxolone capsules. The ganaxolone oral suspension was administered through an oral dosing syringe three times daily. The ganaxolone capsules were administered twice daily. The patients experience better absorption of the ganaxolone with meals (milk).
After establishing baseline seizure frequency, qualifying subjects entered the study and were treated with open-label ganaxolone oral suspension or ganaxolone capsules at doses up to a maximum of 1800 mg/day for up to 6 months. Maximum study participation was 94 weeks: a screening period up to 12 weeks to establish baseline seizure frequency, up to 26 weeks of treatment, a 52 week extension for subjects who benefited from ganaxolone treatment, and up to 4 weeks of down titration period. […] Refractive cases of LGS or CSWS that had prior response to steroid or ACTH could also have been enrolled.
Ganaxolone oral suspension was administered through an oral dosing syringe by parent or legal guardian 3 times daily (TID), following the morning, noon, and evening meal or snack. Each dose was separated by a minimum of 4 hours and a maximum of 8 hours. A missed dose of ganaxolone could have been taken up to 4 hours before the next scheduled dose; otherwise, the missed dose was not to be given.
Ganaxolone capsules were administered with a glass of water or other liquid 2 times daily (BID), following the morning and evening meal or snack. Ganaxolone was provided as either an oral suspension or capsules based on the subject's weight at study entry. Ganaxolone oral suspension was administered through an oral dosing syringe TID by a parent or guardian, following the morning, midday, and evening meal or snack. Each dose was separated by a minimum of 4 hours and a maximum of 8 hours. Ganaxolone capsules were administered BID, following the morning and evening meal or snack. […]

[2] = Solubility of ganaxolone in solvents; format: physicochemical
Procedure: Ganaxolone is insoluble in water. Its solubilities in 95% alcohol, propylene glycol and polyethylene glycol are 13 mg/mL, 3.5 mg/mL and 3.1 mg/mL, respectively.
The pregnenolone neurosteroid (e.g., ganaxolone) formulations suitable for use in the present invention may also be administered parenterally. In such embodiments, the formulations are suitable for intramuscular, subcutaneous, or intravenous injection may comprise physiologically acceptable sterile aqueous or non-aqueous solutions, dispersions, suspensions or emulsions, and sterile powders for reconstitution into sterile injectable solutions or dispersions. Examples of suitable aqueous and non-aqueous carriers, diluents, solvents, or vehicles including water, ethanol, polyols (propylene glycol, polyethylene-glycol, glycerol, cremophor and the like), suitable mixtures thereof, vegetable oils (such as olive oil) and injectable organic esters such as ethyl oleate. Additionally, Ganaxolone can be dissolved at concentrations of >1 mg/ml using water soluble beta cyclodextrins (e.g. beta-sulfobutyl-cyclodextrin and 2-hydroxypropylbetacyclodextrin). A particularly suitable cyclodextrin is a substituted-β-cyclodextrin is CAPTISOL® (cyckodextrin). […]

[3] = test system: cytochrome P450 (CYP) isoenzymes 1A1/2 and 2B1/2; test: CYP induction and auto-induction in animals; format: in vivo, rat
[4] = Mass balance, single PO dose of 300 mg 14C-GNX in healthy male volunteers; format: in vivo; details: human, plasma
Source text: The total plasma radioactivity concentrations achieved were much higher than GNX plasma levels in clinical studies with non-labelled GNX. […] Approximately 80% of the total radioactivity was excreted in faeces and urine by Day 14. […] PK parameters (mean±SD) of ^14C-GNX-derived total radioactivity in Healthy Male Volunteers (Study No. CA042 9402.01 [n=5]) are summarized in Table 22.

CC(=O)[C@H]1CC[C@H]2[C@@H]3CC[C@H]4C[C@](C)(O)CC[C@]4(C)[C@H]3CC[C@]12C [Ganaxolone, 3α-hydroxy-3β-methyl-5α-pregnan-20-one]
28-day seizure frequency, sum of individual seizures and clusters, post-baseline 26-week open-label period, Mean (SD) ([1]; LGS N=10, MITT): 263.66 (502.176) | 28-day seizure frequency, sum of individual seizures and clusters, post-baseline 26-week open-label period, Median ([1]; LGS N=10, MITT): 65.08 | 28-day seizure frequency, sum of individual seizures and clusters, post-baseline through Month 3 (Day 91), Mean (SD) ([1]; LGS N=10, MITT): 263.91 (502.477) | 28-day seizure frequency, sum of individual seizures and clusters, post-baseline through Month 3 (Day 91), Median ([1]; LGS N=10, MITT): 75.91 | Percent change from baseline (at Day 91), 28-day seizure frequency, sum of individual seizures and clusters, Mean (SD) ([1]; LGS N=10, MITT): 122.10% and 122.10 (321.124) % | Percent change from baseline (at Week 26), 28-day seizure frequency, sum of individual seizures and clusters, Mean (SD) ([1]; LGS N=10, MITT): 125.38% and 125.38 (319.051) % | Percent change from baseline (at Week 26), 28-day seizure frequency, sum of individual seizures and clusters, Median ([1]; LGS N=10, MITT): −9.19% | Mean percent change in 28-day total seizure frequency from baseline to Week 26 ([1]; LGS cohort, PP Population): 18.43% | Median percent change in 28-day total seizure frequency from baseline to Week 26 ([1]; LGS cohort, PP Population): 11.15% | Clinical global impression of improvement: much improved ([1]; LGS cohort, end of Week 26): 1 subject | Clinical global impression of improvement: very much improved ([1]; LGS cohort, end of Week 26): 1 subject | Percent change from baseline (at Day 91), 28-day individual seizure frequency, Mean (SD) ([1]; LGS n=9, MITT): 226.72% and 226.72 (496.750) % | Percent change from baseline (at Day 91), 28-day individual seizure frequency, Median ([1]; LGS n=9, MITT): −9.56% | Percent change from baseline (at Week 26), 28-day individual seizure frequency, Mean (SD) ([1]; LGS n=9, MITT): 229.90% and 229.90 (494.164) % | Percent change from baseline (at Week 26), 28-day individual seizure frequency, Median ([1]; LGS n=9, MITT): 5.04% | 28-day individual seizure frequency, post-baseline 26-Week open-label period, Mean (SD) ([1]; LGS n=10, MITT): 257.07 (503.453) | 28-day individual seizure frequency, post-baseline 26-Week open-label period, Median ([1]; LGS n=10, MITT): 55.93 | 28-day individual seizure frequency, post-baseline through Month 3 (Day 91), Mean (SD) ([1]; LGS n=10, MITT): 256.48 (503.934) | 28-day individual seizure frequency, post-baseline through Month 3 (Day 91), Median ([1]; LGS n=10, MITT): 64.71 | Dissolved concentration ([2]; using water soluble beta cyclodextrins): > 1 mg/mL | Solubility in water ([2]; water): insoluble | Auto-induction ([3]; dogs): no auto-induction | Induction of CYP isoenzymes 1A1/2 and 2B1/2 ([3]; female rats): induces | Induction of CYP isoenzymes 1A1/2 and 2B1/2 ([3]; male rats): not males | Auto-induction ([3]; mouse and rat): Auto-induction has also been observed | Half-life [4]: ~25 h
